Experimental data from US12435060B2, “Acylamino bridged heterocyclic compound, and composition and application thereof” (BEIJING SCITECH-MQ PHARMACEUTICALS LIMITED, priority 2019, dated 2025).

The molecules below were run on HT29 cells (assay: Inhibition of cell necrosis (CCK8 method), induced programmed necrosis of HT29 cells). Conditions: Homo sapiens, HT-29; rescue from necrosis induced by TNF-α 20 ng/mL, AT-406 1 μM, Z-VAD-FMK 20 μM; 16-20 hours; CCK-8, OD 450 nm.
Assay type: cell-based
Method: Assay Example 2. Assay Method for Compounds Inhibiting Cell Necrosis (CCK8 Method)
In this assay example 2, under the condition of inducing programmed cell necrosis, different concentrations of the test compounds were added to test the IC50 of the rescue effect of the test compounds on the programmed necrosis.
• Compounds: Dissolved in DMSO to make a 10 mM solution; • TNF-α: The initial concentration was 100 μg/mL; • Z-VAD-FMK: Dissolved in DMSO to make a 10 mM solution; • AT-406: Dissolved in DMSO to make a 10 mM solution. I. Experimental Steps • 1) Compound dilution: All test compounds were dissolved in DMSO to prepare a 10 mM stock solution, and the first concentration gradient dilution of the test compounds was completed in DMSO. The gradient dilution factor was 4 times and 9 concentration gradients were made; A 40-fold overall dilution of all compounds was completed in the cell culture medium, and the resulting compound was 10× compound, which will be added to the wells of the 96-well plate containing cells, so that the final cell culture medium was 1× the designed final concentration. The general drug design is 9 concentration gradients, of which the highest final concentration is 25000 nM, the lowest concentration after 4-fold dilution of 9 concentrations is 0.38 nM, and the final concentration of DMSO in all wells is 0.25%. The compound dilution process is shown in FIG. 3. • 2) HT 29 cells in good growth condition were selected, trypsinized, the cells was collected by centrifugation, resuspended in McCOY's 5A complete medium (containing 10% FBS) and counted, and the number of cells and survival rate were recorded. • 3) Cells were inoculated to the 60 wells in the middle of the 96-well culture plate at a density of 12000 cells/80 μL/well, surrounding wells were filled with sterile water, and incubated overnight. • 4) 10 μL of the 10× compound diluted with the medium was added to the assay wells, 10 μL of McCOY's 5A complete medium containing 2.5% DMSO was added to the inducer-free wells and the control wells, mixed and shaked, and incubated for 30 minutes. • 5) Then 10 μL of inducer mixture (TNF-α, AT-406, Z-VAD-FMK with the final concentration of 20 ng/mL, 1 μM, 20 μM) was added into the assay wells and control wells. 10 μL McCOY's 5A complete medium was added to wells without inducer. Cells were cultured in an incubator with 5% CO2, at 37° C. • 6) After culturing for 16-20 hours, 10 μL of CCK-8 reagent was added to each well, and incubated for about 2 hours; • 7) The OD value was read at 450 nm on the multi-function plate reader. • 8) Data processing: Inhibition rate of necrosis (%)=100*(X−B)/(A−B) • A: The OD values of the wells without inducer (containing cells, CCK-8, without compound and inducer); • […]: OD values of assay wells (containing cells, CCK-8, compound, inducer); • B: OD values of control wells (containing cells, CCK-8, inducer, without compound). Then the value were imported into Graphpad Prism5 software for curve fitting and the IC50 values were calculated.

First: CC(C)n1nc(C(F)(F)F)cc1-c1ccnc(NC(=O)c2nnc(Cc3ccccc3)[nH]2)c1 [Example 32, 5-benzyl-N-(4-(1-isopropyl-3-(trifluoromethyl)-1H-pyrazol-5-yl)pyridin-2-yl)-4H-1,2,4-triazole-3-carboxamide]
Second: Cc1ccc(C(F)(F)F)cc1-c1ccnc(NC(=O)c2nnc(Cc3ccccc3)[nH]2)c1 [Example 36, 5-benzyl-N-(4-(2-methyl-5-(trifluoromethyl)phenyl)pyridin-2-yl)-4H-1,2,4-triazole-3-carboxamide]
The IC50 of the first is higher: > 10000 nM for the first, 100 to 1000 nM for the second. The second is the more potent here.

`Cc1ccc(F)cc1-c1ccnc(NC(=O)c2nnc(Cc3ccccc3)[nH]2)c1` [Example 33, 5-benzyl-N-(4-(5-fluoro-2-methylphenyl)pyridin-2-yl)-4H-1,2,4-triazole-3-carboxamide] and `Cc1ccc(Cl)cc1-c1ccnc(NC(=O)c2nnc(Cc3ccccc3)[nH]2)c1` [Example 34, 5-benzyl-N-(4-(5-chloro-2-methylphenyl)pyridin-2-yl)-4H-1,2,4-triazole-3-carboxamide] fall in the same range of IC50: 100 to 1000 nM for the first, 100 to 1000 nM for the second.

`Cc1ccc(C#N)cc1-c1ccnc(NC(=O)c2nnc(Cc3ccccc3)[nH]2)c1` [Example 35, 5-benzyl-N-(4-(5-cyano-2-methylphenyl)pyridin-2-yl)-4H-1,2,4-triazole-3-carboxamide] and `Cc1ccc(C2CC2)cc1-c1ccnc(NC(=O)c2nnc(Cc3ccccc3)[nH]2)c1` [Example 45, 5-benzyl-N-(4-(5-cyclopropyl-2-methylphenyl)pyridin-2-yl)-4H-1,2,4-triazole-3-carboxamide] cannot be ordered by IC50: ≤ 100 nM for the first, 100 to 1000 nM for the second.

`Cc1ccc(S(C)(=O)=O)cc1-c1ccnc(NC(=O)c2nnc(Cc3ccccc3)[nH]2)c1` [Example 37, 5-benzyl-N-(4-(2-methyl-5-(methylsulfonyl)phenyl)pyridin-2-yl)-4H-1,2,4-triazole-3-carboxamide] and `COCCN(C)c1ccc(C)c(-c2ccnc(NC(=O)c3nnc(Cc4ccccc4)[nH]3)c2)c1` [Example 55, 5-benzyl-N-(4-(5-((2-methoxyethyl)(methyl)amino)-2-methylphenyl)pyridin-2-yl)-4H-1,2,4-triazole-3-carboxamide] fall in the same range of IC50: 100 to 1000 nM for the first, 100 to 1000 nM for the second.

`O=C(Nc1cc(-c2cccc3c2OCC3)ccn1)c1nnc(Cc2ccccc2)[nH]1` [Example 38, 5-benzyl-N-(4-(2,3-dihydrobenzofuran-7-yl)pyridin-2-yl)-4H-1,2,4-triazole-3-carboxamide] and `O=C(Nc1cc(-c2cccc3c2OCCO3)ccn1)c1nnc(Cc2ccccc2)[nH]1` [Example 42, 5-benzyl-N-(4-(2,3-dihydrobenzo[b][1,4]dioxin-5-yl)pyridin-2-yl)-4H-1,2,4-triazole-3-carboxamide] fall in the same range of IC50: 1000 to 10000 nM for the first, 1000 to 10000 nM for the second.

`O=C(Nc1cc(-c2cccc3c2CCC3)ccn1)c1nnc(Cc2ccccc2)[nH]1` [Example 39, 5-benzyl-N-(4-(2,3-dihydro-1H-inden-4-yl)pyridin-2-yl)-4H-1,2,4-triazole-3-carboxamide] and `O=C(Nc1cc(-c2cccc3c2CCCC3)ccn1)c1nnc(Cc2ccccc2)[nH]1` [Example 43, 5-benzyl-N-(4-(5,6,7,8-tetrahydronaphthalen-1-yl)pyridin-2-yl)-4H-1,2,4-triazole-3-carboxamide] fall in the same range of IC50: 1000 to 10000 nM for the first, 1000 to 10000 nM for the second.

Compared with `O=C(Nc1cc(-c2cccc3c2CCCO3)ccn1)c1nnc(Cc2ccccc2)[nH]1` [Example 40, 5-benzyl-N-(4-(chroman-5-yl)pyridin-2-yl)-4H-1,2,4-triazole-3-carboxamide], `O=C(Nc1cc(-c2cccc3c2OCO3)ccn1)c1nnc(Cc2ccccc2)[nH]1` [Example 41, N-(4-(benzo[d][1,3]dioxol-4-yl)pyridin-2-yl)-5-benzyl-4H-1,2,4-triazole-3-carboxamide] is higher in IC50: 1000 to 10000 nM for the first, > 10000 nM for the second. The first is the more potent here.

First: COc1ccc(C2CC2)cc1-c1ccnc(NC(=O)c2nnc(Cc3ccccc3)[nH]2)c1 [Example 46, 5-benzyl-N-(4-(5-cyclopropyl-2-methoxyphenyl)pyridin-2-yl)-4H-1,2,4-triazole-3-carboxamide]
Second: COc1ccc(C)nc1-c1ccnc(NC(=O)c2nnc(Cc3ccccc3)[nH]2)c1 [Example 60, 5-benzyl-N-(3-methoxy-6-methyl-[2,4′-bipyridin]-2′-yl)-4H-1,2,4-triazole-3-carboxamide]
The IC50 of the first is lower: 1000 to 10000 nM for the first, > 10000 nM for the second. The first is the more potent here.

`O=C(Nc1cc(C2CCCC2)ccn1)c1nnc(Cc2ccccc2)[nH]1` [Example 47, 5-benzyl-N-(4-cyclopentylpyridin-2-yl)-4H-1,2,4-triazole-3-carboxamide] and `O=C(Nc1cc(C2CCCCC2)ccn1)c1nnc(Cc2ccccc2)[nH]1` [Example 48, 5-benzyl-N-(4-cyclohexylpyridin-2-yl)-4H-1,2,4-triazole-3-carboxamide] cannot be ordered by IC50: > 10000 nM for the first, > 10000 nM for the second.

`O=C(Nc1cc(C2CCOCC2)ccn1)c1nnc(Cc2ccccc2)[nH]1` [Example 49, 5-benzyl-N-(4-(tetrahydro-2H-pyran-4-yl)pyridin-2-yl)-4H-1,2,4-triazole-3-carboxamide] and `COc1ncc(C)cc1-c1ccnc(NC(=O)c2nnc(Cc3ccccc3)[nH]2)c1` [Example 50, 5-benzyl-N-(2-methoxy-5-methyl-[3,4′-bipyridin]-2′-yl)-4H-1,2,4-triazole-3-carboxamide] fall in the same range of IC50: 1000 to 10000 nM for the first, 1000 to 10000 nM for the second.

Compared with `CCOc1ncc(C)cc1-c1ccnc(NC(=O)c2nnc(Cc3ccccc3)[nH]2)c1` [Example 51, 5-benzyl-N-(2-ethoxy-5-methyl-[3,4′-bipyridin]-2′-yl)-4H-1,2,4-triazole-3-carboxamide], `Cc1cnc(OC(C)C)c(-c2ccnc(NC(=O)c3nnc(Cc4ccccc4)[nH]3)c2)c1` [Example 52, 5-benzyl-N-(2-isopropoxy-5-methyl-[3,4′-bipyridin]-2′-yl)-4H-1,2,4-triazole-3-carboxamide] is higher in IC50: 1000 to 10000 nM for the first, > 10000 nM for the second.

`CCOc1nc(-c2ccnc(NC(=O)c3nnc(Cc4ccccc4)[nH]3)c2)ccc1C` [Example 53, 5-benzyl-N-(6-ethoxy-5-methyl-[2,4′-bipyridin]-2′-yl)-4H-1,2,4-triazole-3-carboxamide] and `COCCOc1nc(-c2ccnc(NC(=O)c3nnc(Cc4ccccc4)[nH]3)c2)ccc1C` [Example 54, 5-benzyl-N-(6-(2-methoxyethoxy)-5-methyl-[2,4′-bipyridin]-2′-yl)-4H-1,2,4-triazole-3-carboxamide] cannot be ordered by IC50: > 10000 nM for the first, > 10000 nM for the second.

`CCOCCN(C)c1ccc(C)c(-c2ccnc(NC(=O)c3nnc(Cc4ccccc4)[nH]3)c2)c1` [Example 56, 5-benzyl-N-(4-(5-((2-ethoxyethyl)(methyl)amino)-2-methylphenyl)pyridin-2-yl)-4H-1,2,4-triazole-3-carboxamide] and `COCCCN(C)c1ccc(C)c(-c2ccnc(NC(=O)c3nnc(Cc4ccccc4)[nH]3)c2)c1` [Example 58, 5-benzyl-N-(4-(5-((3-methoxypropyl)(methyl)amino)-2-methylphenyl)pyridin-2-yl)-4H-1,2,4-triazole-3-carboxamide] fall in the same range of IC50: 100 to 1000 nM for the first, 100 to 1000 nM for the second.

`Cc1ccc(N(C)CCCO)cc1-c1ccnc(NC(=O)c2nnc(Cc3ccccc3)[nH]2)c1` [Example 57, 5-benzyl-N-(4-(5-((3-hydroxypropyl)(methyl)amino)-2-methylphenyl)pyridin-2-yl)-4H-1,2,4-triazole-3-carboxamide] and `COCCCSc1ccc(C)c(-c2ccnc(NC(=O)c3nnc(Cc4ccccc4)[nH]3)c2)c1` [Example 59, 5-benzyl-N-(4-(5-(3-methoxypropylthio)-2-methylphenyl)pyridin-2-yl)-4H-1,2,4-triazole-3-carboxamide] cannot be ordered by IC50: 100 to 1000 nM for the first, ≤ 100 nM for the second.

`COc1cnc(C)cc1-c1ccnc(NC(=O)c2nnc(Cc3ccccc3)[nH]2)c1` [Example 61, 5-benzyl-N-(5′-methoxy-2′-methyl-[4,4′-bipyridin]-2-yl)-4H-1,2,4-triazole-3-carboxamide] and `CCc1cc(-c2ccnc(NC(=O)c3nnc(Cc4ccccc4)[nH]3)c2)c(OC)cn1` [Example 63, 5-benzyl-N-(2′-ethyl-5′-methoxy-[4,4′-bipyridin]-2-yl)-4H-1,2,4-triazole-3-carboxamide] fall in the same range of IC50: 1000 to 10000 nM for the first, 1000 to 10000 nM for the second.

For `CCOc1ccc(C)nc1-c1ccnc(NC(=O)c2nnc(Cc3ccccc3)[nH]2)c1` [Example 62, 5-benzyl-N-(3-ethoxy-6-methyl-[2,4′-bipyridin]-2′-yl)-4H-1,2,4-triazole-3-carboxamide], the IC50 was > 10000 nM.
